Values quoted from earlier work in patent US20220054467A1, “TREATMENT OF PSORIASIS WITH TOPICAL TAPINAROF-TAZAROTENE COMBINATION COMPOSITIONS” (Sol-Gel Technologies Ltd., priority 2019, published 2022).
Read-outs that look alike come from different tables or passages of the source.

Tests used:
[1] = as a single drug; placebo 20.2%
[2] = tested on: interleukin-6 and interleukin-17A; settings: in vitro human skin
[3] = tested on: interleukin-6 and interleukin-17A; settings: mouse models
[4] = 1% tapinarof arm vs. the 0.5% arm or vehicle

C=C1/C(=C\C=C2/CCC[C@]3(C)[C@@H]([C@H](C)/C=C/[C@@H](O)C4CC4)CC[C@@H]23)C[C@@H](O)C[C@@H]1O [calcipotriene]
adverse effects [1]: 19.5%

CC(C)c1c(O)cc(/C=C/c2ccccc2)cc1O [Tapinarof, 3,5-dihydroxy-4-isopropyl-trans-stilbene]
efficacy (plaque psoriasis; [4]): higher efficacy | onset of action (plaque psoriasis; [4]): quicker onset of action | most frequent adverse events (plaque psoriasis; topical cream, clinical studies): folliculitis and contact dermatitis | adverse effects [1]: 44.5% | effect on proinflammatory mediators, including interleukin-6 and interleukin-17A [2]: inhibit specific proinflammatory mediators | effect on skin barrier function [2]: enhance skin barrier function | effect on proinflammatory mediators, including interleukin-6 and interleukin-17A [3]: inhibit specific proinflammatory mediators | effect on skin barrier function [3]: enhance skin barrier function
